Structures are written as SMILES. *1 amine or outer side, *2 acyl side, *3 side chain or, on linkers, in order; H or OH if unused. Where a SMILES comes first, the peptide text is derived from it. Side-chain parts run from the residue outwards. [ ]: non-standard residue; d: D form. The star is where a group is joined. C20 diacid = O=C(O)CCCCCCCCCCCCCCCCCCC(=O)*; C18 diacid = O=C(O)CCCCCCCCCCCCCCCCC(=O)*; γGlu = O=C(O)[C@H](CCC(=O)[*:2])N[*:1]; εLys = N[C@@H](CCCCN[*:1])C(=O)[*:2]; Aib = CC(C)(N)C(=O)O

Results on four molecules are retold here after patent US20230391845A1, “GLP-1, GIP AND GLUCAGON RECEPTOR TRIPLE AGONISTS” (priority 2020, published 2023).

Data set [1] can be described thus: Pharmacodynamic study in DIO mice, daily s.c. dosing over 13 days (body weight, food intake). In kind it is in vivo, C57BL/6J male mice. The settings on record: for Absolute BW (grams) Day 0: Day 0 (baseline); for Cumulative food intake (grams) Day 13: mean ± SEM, n = 2. How it is done: The purpose of this example is to assess the in vivo effect of selected triple agonists on pharmacodynamic parameters in diet-induced obese (DIO) mice. The animals were treated once daily via subcutaneous injection with a liquid formulation of the triple agonist to be tested to assess effects on body weight, foot intake, and glucose tolerance.
C57BL/6J male mice were purchased from Jackson Laboratories at approximately 8 weeks of age. Mice were group housed and fed a high-fat, high-sugar diet from Research Diets (D12331). Mice were maintained on this diet for 12 weeks prior to initializing the pharmacology studies. Mice exceeding a measured body weight of 50 grams were considered diet-induced obese (DIO) and included in pharmacology studies. Mice were exposed to a controlled 12 h:12 h light:dark cycle at ambient room temperature (22° C.) with ab libitum access to food and water. Studies were approved by and performed according to the guidelines of the Institutional Animal Care and Use Committee of the University of Cincinnati.
All compounds in the study were formulated in the following buffer: 50 mM phosphate; 70 mM sodium chloride; 0.05% Tween-80, pH 7.4. Dosing solutions were formulated in glass vials and stored at 2-8° C. Dosing solutions were brought to room temperature before dosing and returned to 2-8° C. after dosing.
The animals were grouped to receive treatment as follows: Vehicle or GLP-1/GIP/Gcg receptor triple agonists as described herein, where vehicle is 50 mM phosphate, 70 mM sodium chloride; 0.05% (v/v) Tween-80, pH 7.4. The test compounds were dissolved in the vehicle, to stock concentrations of […], then diluted 50- to 200-fold in the vehicle to achieve the desired dosing solution concentrations. Animals were dosed subcutaneously once daily in the morning for each day of treatment with dosing solution at a volume of 2-5 μL per gram of body weight as necessary to achieve the desired dose (e.g. 0.3 nmol/kg, 1.0 nmol/kg, or 3.0 nmol/kg).
Body weight (BW) and food intake were measured immediately prior to dosing each day. The percent change in body was calculated individually for each mouse based on initial body weight prior to the first injection.

Another data set concerns the target T1, human GLP-1 receptor (Homo sapiens, UniProt P43220).
T1 construct: expressed in transfected cells; host or cells: BHK cells (parent line BHKTS13) containing CRE luciferase
As to the kind of experiment: In vitro functional potency (CRE luciferase; whole cells), human GLP-1R. In kind it is cell-based.

The nature of data set [2]: Pharmacokinetic study in minipigs, i.v. administration. Further details: species or system Göttingen minipigs. As to conditions: female, Göttingen, minipig, in vivo, iv; minipigs, i.v. administration, harmonic mean; read-out: Terminal half-life t1/2 (converted). How it is done: The purpose of this example is to determine the half-life in vivo of the triple agonists as described herein after i.v. administration to minipigs, i.e. the prolongation of their time in the body and thereby their time of action. This is done in a pharmacokinetic (PK) study, where the terminal half-life of the triple agonist in question is determined. By terminal half-life is generally meant the period of time it takes to halve a certain plasma concentration, measured after the initial distribution phase.
Female Göttingen minipigs were obtained from Ellegaard Göttingen Minipigs (Dalmose, Denmark) approximately 7-14 months of age and weighing from approximately 16-35 kg were used in the studies. The minipigs were housed individually and fed restrictedly once daily with SDS minipig diet (Special Diets Services, Essex, UK).
After at 3 weeks of acclimatisation two permanent central venous catheters were implanted in vena cava caudalis in each animal. The animals were allowed 1 week recovery after the surgery, and were then used for repeated pharmacokinetic studies with a suitable wash-out period between successive dosings.
The animals were fasted for approximately 18 hours before dosing and from 0 to 4 hours after dosing, but had adlibitum access to water during the whole period.
Intravenous injections (the volume corresponding to usually 1.5-2 nmol/kg, for example 0.1 mL/kg) of the triple agonists were given through one catheter, and blood was sampled at predefined time points for up to 14 days post dosing (preferably through the other catheter). Blood samples (for example 0.8 mL) were collected in 8 mM EDTA buffer and then centrifuged at 4° C. and 1942 g for 10 minutes.
Plasma was pipetted into Micronic tubes on dry ice and kept at −20° C. until analysed for plasma concentration of the triple agonists using ELISA, or a similar antibody-based assay, or LCMS. Individual plasma concentration-time profiles were analysed by a non-compartmental model in Phoenix WinNonLin ver. 6.4. (Pharsight Inc., Mountain View, CA, USA), and the resulting terminal half-lives (harmonic mean) determined.

Another data set has as its target T2, human GIP receptor (Homo sapiens, UniProt P48546).
T2 construct: expressed in transfected cells; host or cells: BHK cells (parent line BHKTS13) containing CRE luciferase
T2 sequence (P48546 22-466): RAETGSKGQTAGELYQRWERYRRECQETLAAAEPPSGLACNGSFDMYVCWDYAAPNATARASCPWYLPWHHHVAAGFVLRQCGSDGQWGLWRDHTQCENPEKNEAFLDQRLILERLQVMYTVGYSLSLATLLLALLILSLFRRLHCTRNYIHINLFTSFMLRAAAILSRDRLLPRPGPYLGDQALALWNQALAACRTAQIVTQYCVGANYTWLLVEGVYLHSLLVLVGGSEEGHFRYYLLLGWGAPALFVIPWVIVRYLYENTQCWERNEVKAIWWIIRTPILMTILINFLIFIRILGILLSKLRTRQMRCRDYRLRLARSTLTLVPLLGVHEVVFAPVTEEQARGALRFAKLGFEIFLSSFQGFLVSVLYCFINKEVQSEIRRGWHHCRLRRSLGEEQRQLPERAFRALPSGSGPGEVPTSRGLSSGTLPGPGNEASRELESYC
As to the kind of experiment: In vitro functional potency (CRE luciferase; whole cells), human GIPR. In kind it is cell-based. As to conditions: BHK CRE luc2P hGIPR whole cells; Table 2; read-out: hGIPR CRE Luc EC50.

The mark [3] stands for this setting: daily s.c. dosing over 13 days, compared to vehicle.

T1 sequence (P43220 24-463): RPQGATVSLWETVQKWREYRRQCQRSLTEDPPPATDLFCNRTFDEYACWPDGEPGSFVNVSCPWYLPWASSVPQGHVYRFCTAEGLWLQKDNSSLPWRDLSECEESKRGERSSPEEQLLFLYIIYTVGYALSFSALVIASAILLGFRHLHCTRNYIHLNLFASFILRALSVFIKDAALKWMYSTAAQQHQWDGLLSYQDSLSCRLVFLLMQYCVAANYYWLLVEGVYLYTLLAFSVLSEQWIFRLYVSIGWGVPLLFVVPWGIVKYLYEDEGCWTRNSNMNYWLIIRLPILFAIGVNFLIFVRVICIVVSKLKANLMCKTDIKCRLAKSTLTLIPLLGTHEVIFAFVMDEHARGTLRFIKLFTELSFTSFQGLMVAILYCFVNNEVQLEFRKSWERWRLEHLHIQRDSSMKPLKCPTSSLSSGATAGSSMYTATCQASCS
Description for human GIP receptor: (§1) The purpose of this example is to test the functional activity, or potency, of the compounds in vitro at the human and mouse GLP-1, GIP, and Gcg receptors. The in vitro functional potency is the measure of target receptor activation in a whole cell assay.
(§2) In vitro functional potency was determined by measuring the response of the target receptor in a reporter gene assay in individual cell lines. The assay was performed in stably transfected BHK cell lines that expresses one of the following G-protein coupled receptors: human GLP-1 receptor, human GIP receptor, human Gcg receptor, mouse GLP-1 receptor, mouse GIP receptor, or mouse Gcg receptor; and where each cell line contains the DNA for the cAMP response element (CRE) coupled to a promoter and the gene for firefly luciferase (CRE luciferase). When the respective receptor is activated, it results in the production of cAMP, which in turn results in expression of the luciferase protein. When assay incubation is completed, luciferase substrate (luciferin) is added resulting in the enzymatic conversion of luciferin to oxyluciferin and producing bioluminescence. The luminescence is measured as the readout for the assay.
(§3) The cells lines used in these assays were BHK cells with BHKTS13 as a parent cell line. The cell lines were derived from a clone containing the CRE luciferase element and were established by further transfection with the respective receptor to obtain the relevant cell line.
(§4) The cells were cultured at 37° C. with 5% CO2 in Cell Culture Medium. They were aliquoted and stored in liquid nitrogen. The cells were kept in continuous culture and were seeded out the day before each assay.
(§5) GLP-1R and GcgR Cell Culture Medium consisted of DMEM medium with 10% FBS, 500 µg/mL G418, and 300 µg/mL hygromycin. GIPR Cell Culture Medium consisted of DMEM medium with 10% FBS, 400 µg/mL G418, and 300 µg/mL hygromycin. Assay Buffer consisted of DMEM w/o phenol red, 10 mM Hepes, 1× Glutamax, 1% ovalbumin, and 0.1% Pluronic F-68.
(§6) • 1) Cells were plated at 5000 cells/well and incubated overnight in the assay plate. • 2) Cells were washed once in DPBS. • 3) Stocks of the test compounds and reference compounds in concentrations ranging from 100-300 pM were diluted 1:150 in Assay Buffer.
(§7) The data from the microtiter plate reader was first regressed in an Excel in order to calculate the x-axis, log scale concentrations based on the individual test compound's stock concentration and the dilutions of the assay. […] The software performs a non-linear regression (log(agonist) vs response). A minimum of two replicates was measured for each sample. The reported values are averages of the replicates.
Description for human GLP-1 receptor: as §1, §2, §3, §4, §5, §6, §7

For the molecule `CC[C@H](C)[C@H](NC(=O)[C@H](CO)NC(=O)[C@H](Cc1ccc(O)cc1)NC(=O)[C@H](CC(=O)O)NC(=O)[C@H](CO)NC(=O)[C@@H](NC(=O)[C@H](Cc1ccccc1)NC(=O)[C@@H](NC(=O)CNC(=O)[C@H](Cc1c[nH]cn1)NC(=O)C(C)(C)NC(=O)[C@@H](N)Cc1c[nH]cn1)[C@@H](C)O)[C@@H](C)O)C(=O)N[C@@H](CC(C)C)C(=O)N[C@@H](CC(C)C)C(=O)N[C@@H](CCC(=O)O)C(=O)N[C@@H](CCCCNC(=O)[C@@H](N)CCCCNC(=O)[C@@H](N)CCCCNC(=O)CC[C@H](NC(=O)CCCCCCCCCCCCCCCCCCC(=O)O)C(=O)O)C(=O)N[C@@H](CCC(N)=O)C(=O)N[C@@H](C)C(=O)N[C@@H](C)C(=O)NC(C)(C)C(=O)N[C@@H](CCC(=O)O)C(=O)N[C@@H](Cc1ccccc1)C(=O)N[C@H](C(=O)N[C@@H](CCC(N)=O)C(=O)N[C@@H](Cc1c[nH]c2ccccc12)C(=O)N[C@@H](CC(C)C)C(=O)N[C@@H](CC(C)C)C(=O)N[C@@H](CCC(=O)O)C(=O)NCC(=O)NCC(=O)N1CCC[C@H]1C(=O)N[C@@H](CO)C(=O)N[C@@H](CO)C(=O)NCC(=O)N[C@@H](C)C(=O)N1CCC[C@H]1C(=O)N1CCC[C@H]1C(=O)N1CCC[C@H]1C(=O)N[C@@H](CO)C(N)=O)C(C)C` [Compound No. 43] (H-H[Aib]HGTFTSDYSILLEK([εLys-εLys-γGlu-C20 diacid])QAA[Aib]EFVQWLLEGGPSSGAPPPS-NH2), the “Absolute BW (grams) Day 0” value in data set [1] (1.0 nmol/kg group) is 60.4 ± 1.0 grams. In data set [1] (1.0 nmol/kg s.c. once daily), the “Absolute BW (grams) Day 13” value is 48.7 ± 1.4 grams, the “Change in BW (%) Day 13” value is −19.4 ± 1.5% and the “Cumulative food intake (grams) Day 13” value is reported as 21.1 ± 3.3 grams. Besides, in data set [1] (3.0 nmol/kg group), the “Absolute BW (grams) Day 0” value was found to be 60.1 ± 1.9 grams. Besides, in data set [1] (3.0 nmol/kg s.c. once daily), the “Absolute BW (grams) Day 13” value is reported as 36.3 ± 1.0 grams, the “Change in BW (%) Day 13” value is −39.5 ± 1.3% and the “Cumulative food intake (grams) Day 13” value is recorded as 11.5 ± 2.4 grams. In data set [1] (setting [3]), the “reduction in body weight (in words)” value is “superior reduction” and the “reduction in food intake (in words)” value was “superior reduction”. For the same molecule, the EC50 on human GLP-1 receptor worked out at 3 pM. Moreover, the half-life in data set [2] is 71 h.

As for `CC[C@H](C)[C@H](NC(=O)[C@H](CO)NC(=O)[C@H](Cc1ccc(O)cc1)NC(=O)[C@H](CC(=O)O)NC(=O)[C@H](CO)NC(=O)[C@@H](NC(=O)[C@H](Cc1ccccc1)NC(=O)[C@@H](NC(=O)CNC(=O)[C@H](Cc1c[nH]cn1)NC(=O)C(C)(C)NC(=O)[C@@H](N)Cc1c[nH]cn1)[C@@H](C)O)[C@@H](C)O)C(=O)N[C@@H](CC(C)C)C(=O)N[C@@H](CC(C)C)C(=O)N[C@@H](CCC(=O)O)C(=O)N[C@@H](CCCCNC(=O)[C@@H](N)CCCCNC(=O)[C@@H](N)CCCCNC(=O)CC[C@H](NC(=O)CCCCCCCCCCCCCCCCCCC(=O)O)C(=O)O)C(=O)N[C@@H](CCC(N)=O)C(=O)N[C@@H](C)C(=O)N[C@@H](C)C(=O)N[C@@H](CCC(N)=O)C(=O)N[C@@H](CCC(=O)O)C(=O)N[C@@H](Cc1ccccc1)C(=O)N[C@H](C(=O)N[C@@H](CCC(N)=O)C(=O)N[C@@H](Cc1c[nH]c2ccccc12)C(=O)N[C@@H](CC(C)C)C(=O)N[C@@H](CC(C)C)C(=O)N[C@@H](CCC(=O)O)C(=O)NCC(=O)NCC(=O)N1CCC[C@H]1C(=O)N[C@@H](CO)C(=O)N[C@@H](CO)C(=O)NCC(=O)N[C@@H](C)C(=O)N1CCC[C@H]1C(=O)N1CCC[C@H]1C(=O)N1CCC[C@H]1C(=O)N[C@@H](CO)C(=O)O)C(C)C` [Compound No. 53] (H-H[Aib]HGTFTSDYSILLEK([εLys-εLys-γGlu-C20 diacid])QAAQEFVQWLLEGGPSSGAPPPS-OH), on human GIP receptor, the EC50 was 4.8 pM.

`CC[C@H](C)[C@H](NC(=O)[C@H](CO)NC(=O)[C@H](Cc1ccc(O)cc1)NC(=O)[C@H](CC(=O)O)NC(=O)[C@H](CO)NC(=O)[C@@H](NC(=O)[C@H](Cc1ccccc1)NC(=O)[C@@H](NC(=O)CNC(=O)[C@H](Cc1c[nH]cn1)NC(=O)C(C)(C)NC(=O)[C@@H](N)Cc1c[nH]cn1)[C@@H](C)O)[C@@H](C)O)C(=O)N[C@@H](Cc1ccc(O)cc1)C(=O)N[C@@H](CC(C)C)C(=O)N[C@@H](CC(=O)O)C(=O)N[C@@H](CCCCNC(=O)[C@@H](N)CCCCNC(=O)[C@@H](N)CCCCNC(=O)CC[C@H](NC(=O)CCCCCCCCCCCCCCCCCCC(=O)O)C(=O)O)C(=O)N[C@@H](CCC(N)=O)C(=O)N[C@@H](C)C(=O)N[C@@H](C)C(=O)NC(C)(C)C(=O)N[C@@H](CCC(=O)O)C(=O)N[C@@H](Cc1ccccc1)C(=O)N[C@H](C(=O)N[C@@H](CCC(N)=O)C(=O)N[C@@H](Cc1c[nH]c2ccccc12)C(=O)N[C@@H](CC(C)C)C(=O)N[C@@H](CC(C)C)C(=O)N[C@@H](CCC(=O)O)C(=O)NCC(=O)NCC(=O)N1CCC[C@H]1C(=O)N[C@@H](CO)C(=O)N[C@@H](CO)C(=O)NCC(=O)N[C@@H](C)C(=O)N1CCC[C@H]1C(=O)N1CCC[C@H]1C(=O)N1CCC[C@H]1C(=O)N[C@@H](CO)C(N)=O)C(C)C` [Compound No. 28] (H-H[Aib]HGTFTSDYSIYLDK([εLys-εLys-γGlu-C20 diacid])QAA[Aib]EFVQWLLEGGPSSGAPPPS-NH2): the EC50 on human GIP receptor stood at 7.7 pM.

For the molecule `CC[C@H](C)[C@H](NC(=O)[C@H](CO)NC(=O)[C@H](Cc1ccc(O)cc1)NC(=O)[C@H](CC(=O)O)NC(=O)[C@H](CO)NC(=O)[C@@H](NC(=O)[C@H](Cc1ccccc1)NC(=O)[C@@H](NC(=O)CNC(=O)[C@H](Cc1c[nH]cn1)NC(=O)C(C)(C)NC(=O)[C@@H](N)Cc1c[nH]cn1)[C@@H](C)O)[C@@H](C)O)C(=O)N[C@@H](CC(C)C)C(=O)N[C@@H](CC(C)C)C(=O)N[C@@H](CCC(=O)O)C(=O)N[C@@H](CCCCNC(=O)[C@@H](N)CCCCNC(=O)[C@@H](N)CCCCNC(=O)CC[C@H](NC(=O)CCCCCCCCCCCCCCCCC(=O)O)C(=O)O)C(=O)N[C@@H](CCC(N)=O)C(=O)N[C@@H](C)C(=O)N[C@@H](C)C(=O)N[C@@H](CCC(=O)O)C(=O)N[C@@H](CCC(=O)O)C(=O)N[C@@H](Cc1ccccc1)C(=O)N[C@H](C(=O)N[C@@H](CCC(N)=O)C(=O)N[C@@H](Cc1c[nH]c2ccccc12)C(=O)N[C@@H](CC(C)C)C(=O)N[C@@H](CC(C)C)C(=O)N[C@@H](CCC(=O)O)C(=O)NCC(=O)NCC(=O)N1CCC[C@H]1C(=O)N[C@@H](CO)C(=O)N[C@@H](CO)C(=O)NCC(=O)N[C@@H](C)C(=O)N1CCC[C@H]1C(=O)N1CCC[C@H]1C(=O)N1CCC[C@H]1C(=O)N[C@@H](CO)C(=O)O)C(C)C` [Compound No. 51] (H-H[Aib]HGTFTSDYSILLEK([εLys-εLys-γGlu-C18 diacid])QAAEEFVQWLLEGGPSSGAPPPS-OH), on human GIP receptor, the EC50 is 1.8 pM.
